Measured values: USRE38009E1, “Zeaxanthin formulations for human ingestion” (Zeavision LLC, priority 1995, dated 2003)

Experiment: Storage of purified zeaxanthin powder for roughly six months unprotected, chiral column chromatography analysis
Format: physicochemical
Details: relatively unprotected, normal refrigeration, no anti-oxidants, no protection from atmospheric oxygen, fresh preparation at least 98% pure
Text: After roughly six months of storage in a relatively unprotected state (usually under normal refrigeration with moderately frequent removal; without containing any anti-oxidants, and without taking any precautions to prevent contact by atmospheric oxygen), a sample of the zeaxanthin preparation was sent for stereoisomeric analysis to Prof.

## CC1=C(/C=C/C(C)=C/C=C/C(C)=C/C=C/C=C(C)/C=C/C=C(C)/C=C/C2=C(C)C[C@@H](O)CC2(C)C)C(C)(C)C[C@H](O)C1 [Zeaxanthin, zeaxanthin]
  Zeaxanthin content of preparation after storage: 92%
